One may read the IC50 as the concentration that inhibits the measured activity by half.

Sequence of EGFR (P00533 25-1210): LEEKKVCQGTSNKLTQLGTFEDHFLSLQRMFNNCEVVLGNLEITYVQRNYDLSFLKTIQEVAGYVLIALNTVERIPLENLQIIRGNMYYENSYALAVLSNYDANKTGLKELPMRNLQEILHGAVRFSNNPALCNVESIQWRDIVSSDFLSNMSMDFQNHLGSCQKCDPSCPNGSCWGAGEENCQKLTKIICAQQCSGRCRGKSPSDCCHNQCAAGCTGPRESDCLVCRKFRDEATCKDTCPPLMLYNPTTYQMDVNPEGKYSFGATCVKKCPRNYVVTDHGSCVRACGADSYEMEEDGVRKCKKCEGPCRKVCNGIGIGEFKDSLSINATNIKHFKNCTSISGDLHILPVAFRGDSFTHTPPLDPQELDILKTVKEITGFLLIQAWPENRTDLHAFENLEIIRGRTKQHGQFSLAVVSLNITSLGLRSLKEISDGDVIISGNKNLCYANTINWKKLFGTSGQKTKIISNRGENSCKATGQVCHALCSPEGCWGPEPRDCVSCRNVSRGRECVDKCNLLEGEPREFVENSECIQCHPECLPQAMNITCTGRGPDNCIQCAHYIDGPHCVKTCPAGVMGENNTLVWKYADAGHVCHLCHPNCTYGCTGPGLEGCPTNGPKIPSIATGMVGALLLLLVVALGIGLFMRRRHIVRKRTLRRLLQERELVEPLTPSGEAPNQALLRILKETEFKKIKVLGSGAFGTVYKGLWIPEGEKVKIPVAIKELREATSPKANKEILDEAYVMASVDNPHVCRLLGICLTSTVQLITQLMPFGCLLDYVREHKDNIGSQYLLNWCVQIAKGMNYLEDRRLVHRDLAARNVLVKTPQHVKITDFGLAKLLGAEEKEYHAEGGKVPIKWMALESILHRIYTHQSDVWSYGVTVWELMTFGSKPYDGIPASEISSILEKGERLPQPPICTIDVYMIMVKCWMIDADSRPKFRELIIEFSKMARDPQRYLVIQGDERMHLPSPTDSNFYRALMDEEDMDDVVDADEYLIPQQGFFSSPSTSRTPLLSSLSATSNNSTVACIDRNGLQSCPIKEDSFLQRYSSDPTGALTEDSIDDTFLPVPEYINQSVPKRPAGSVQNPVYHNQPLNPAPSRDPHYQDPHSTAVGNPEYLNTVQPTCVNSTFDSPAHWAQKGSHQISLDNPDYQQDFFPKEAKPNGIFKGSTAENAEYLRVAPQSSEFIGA

The assay concerns the target EGFR (Homo sapiens, UniProt P00533). The experiment in a line: Biochemical EGFR assay (ELISA, A431 cell lysate). Details: A431 cell lysate (Screening Lab, SUGEN, Inc.); host or cells: A431. Particulars: read-out: bio EGFr IC50. The gist of the method: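 EGFR captured from A431 cell lysate onto anti-EGFR-coated plates, then incubated with test compound for 30 min at room temperature. Tyrosine phosphorylation with ATP/MnCl2 was stopped with EDTA after 5 min and detected by anti-phosphotyrosine ELISA with peroxidase/ABTS read-out.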
A general note: In an ELISA, binding on a coated surface is turned into a signal by an enzyme label.
In the case of `COc1cc(/C=C2/C(=O)Nc3ccccc32)c(-c2ccc3ccccc3c2)cc1OC` [Example 62, 3-(4,5-Dimethoxy-2-naphthalen-2-ylbenzylidene)-1,3-dihydroindol-2-one], the IC50 was more than 100 µM.

Take `CCc1ccc2c(c1)/C(=C\c1cc(C(C)C)c(OC)c(C(C)C)c1)C(=O)N2` [Example 28, 3-(3,5-Diisopropyl-4-methoxbenzylidene)-5-ethyl-1,3-dihydroindol-2-one]: the IC50 is more than 100 µM.

For `CC(C)c1cc(/C=C2/C(=O)Nc3ccc(Br)cc32)cc(C(C)C)c1OCCN1CCOCC1` [Example 57, 5-Bromo-3-[3,5-diisopropyl-4-(2-morpholin-4-ylethoxy)benzylidene]-1,3-dihydroindol-2-one], the IC50 is more than 100 µM.

Consider `CNS(=O)(=O)c1ccc2c(c1)C(=Cc1[nH]c3ccccc3c1C)C(=O)N2` (racemic) [Example 154, 3-(3-Methyl-1H-indol-2-ylmethylene)-2-oxo-2,3-dihydro-1H-indole-5-sulfonic acid methylamide], for which the IC50 is more than 100 µM.

Take `COc1cccc(-c2cc(OC)c(OC)cc2/C=C2/C(=O)Nc3ccc(Cl)cc32)c1` [Example 61, 5-Chloro-3-(4,5-3′-Trimethoxybiphenyl-2-ylmethylene)-1,3-dihydroindol-2-one]: the IC50 was more than 100 µM.

With `O=C1Nc2ncccc2/C1=C\c1ccc2c(c1)CCO2` [Example 73, 3-(2,3-Dihydrobenzofuran-5-ylmethylene)-1,3-dihydropyrrolo[2,3-b]pyridin-2-one], the concentration for half-maximal inhibition (IC50) came out at 7.9 µM.

Take `CC(=O)Nc1ccc2c(c1)NC(=O)/C2=C/c1ccc(OCCN2CCOCC2)c(C2CCCCC2)c1` [Example 16, N-{3-[3-Cyclohexyl-4-(2-morpholin-4-ylethoxy)-benzylidene]-2-oxo-2,3-dihydro-1H-indol-6-yl}-acetamide]: the IC50 is more than 100 µM.

Consider `COc1ccc(/C=C2/C(=O)Nc3ccc(Cl)cc32)cc1-c1cccnc1` [Example 60], for which the IC50 was more than 100 µM.

As for `COc1c(C(C)C)cc(/C=C2\C(=O)Nc3cccc(C)c32)cc1C(C)C` [Example 53, 3-(3,5-Diisopropyl-4-methoxybenzylidene)-4-methyl-1,3-dihydroindol-2-one], the IC50 was more than 100 µM.

Turning to `COc1cc(/C=C2/C(=O)Nc3ccccc32)c(-c2cccs2)cc1OC` [Example 39, 3-(4,5-Dimethoxy-2-thiophen-2-ylbenzylidene)-1,3-dihydroindol-2-one], the IC50 is more than 100 µM.

For `O=C1Nc2ccc(Cl)cc2/C1=C\c1ccc2c(c1)CCO2` [Example 14, 5-Chloro-3-(2,3-dihydro-benzofuran-5-ylmethylene)-1,3-dihydroindol-2-one], the IC50 is more than 100 µM.

As for `COc1ccc(/C=C2/C(=O)Nc3cc(NC(C)=O)ccc32)cc1-c1ccsc1` [Example 18, N-[3-(4-Methoxy-3-thiophene-3-ylbenzylidene)-2-oxo-2,3-dihydro-1H-indol-6-yl]-acetamide], the IC50 was more than 100 µM.

Regarding `COc1ccc2c(c1)NC(=O)/C2=C/c1ccc(OC)c(-c2ccsc2)c1` [Example 64, 6-Methoxy-3-(4-methoxy-3-thiophen-3-ylbenzylidene)-1,3-dihydroindol-2-one], the 50% inhibitory concentration (IC50) is more than 100 µM.

On to `COc1ccc(/C=C2\C(=O)Nc3cccc(C)c32)cc1C1CCCCC1` [Example 68, 3-(3-Cyclohexyl-4-methoxybenzylidene)-4-methyl-1,3-dihydroindol-2-one], for which the IC50 was more than 100 µM.

Regarding `COc1c(C(C)C)cc(/C=C2/C(=O)Nc3ccc(C(C)=O)cc32)cc1C(C)C` [Example 5, 5-Acetyl-3-(3,5-diisopropyl-4-methoxybenzylidene)-1,3dihydroindol-2-one], the half-maximal inhibitory concentration (IC50) was more than 100 µM.

As to `COc1ccc(/C=C2/C(=O)Nc3ccc(F)cc32)cc1C1CCCC1` [Example 11, 3-(3-Cyclopentyl-4-methoxybenzylidene)-5-fluoro-1,3-dihydroindol-2-one], the half-maximal inhibitory concentration (IC50) is more than 100 µM.

On to `CC(=O)Nc1ccc2c(c1)NC(=O)/C2=C/c1ccc(OCCN2CCOCC2)c(-c2ccsc2)c1` [Example 50, N-{3-[4-(2-Morpholin-4-ylethoxy)-3-thiophen-3-ylbenzylidene]-2-oxo-2,3-dihydro-1H-indol-6-yl}-acetamide], for which the IC50 was more than 100 µM.

Take `COc1ccc(C=C2C(=O)Nc3ccccc32)cc1-c1cccc(NC(C)=O)c1` [Example 29, N-[2′-Methoxy-5′-(2-oxo-1,2-dihydroindol-3-ylidenemethyl)-biphenyl-3-yl]-acetamide]: the IC50 is more than 100 µM.

Take `CC(=O)Nc1ccc2c(c1)NC(=O)/C2=C\c1ccc2c(c1)CCC(C)(C)O2` [Example 33, N-[3-(2,2-Dimethylchroman-6-ylmethylene)-2-oxo-2,3-dihydro-1H-indol-6-yl]-acetamide]: the IC50 was more than 100 µM.

As to `COc1ccc(/C=C2/C(=O)Nc3ccc(Br)cc32)cc1-c1ccccc1` [Example 13, 5-Bromo-3-(6-methoxybiphenyl-3-ylmethylene)-1,3-dihydroindol-2-one], the IC50 was more than 100 µM.

`COc1ccc(C=C2C(=O)Nc3cc(NC(C)=O)ccc32)cc1-c1cccc(NC(C)=O)c1` (mixture of isomers) [Example 63, N-[3-(3′-Acetylamino-6-methoxybiphenyl-3-ylmethylene)-2-oxo-2,3-dihydro-1H-indol-6-yl]-acetamide]: the IC50 was more than 100 µM.

With `COc1c(C(C)C)cc(/C=C2/C(=O)Nc3ccc(Br)cc32)cc1C(C)C` [Example 54, 5-Bromo-3-(3,5-diisopropyl-4-methoxybenzylidene)-1,3-dihydroindol-2-one], the IC50 is more than 100 µM.

`COc1ccc(/C=C2/C(=O)Nc3ccccc32)cc1C1CCCC1` [Example 10, 3-(3-Cyclopentyl-4-methoxybenzylidene)-1,3-dihydroindol-2-one]: the half-maximal inhibitory concentration (IC50) was more than 100 µM.

With `COc1ccc(/C=C2/C(=O)Nc3ccc(F)cc32)cc1C(C)C` [Example 44, 5-Fluoro-3-(3-isopropyl-4-methoxybenzylidene)-1,3-dihydroindol-2-one], the IC50 is more than 100 µM.

For the molecule `COc1c(C(C)C)cc(/C=C2/C(=O)Nc3cc(NC(=O)OC(C)(C)C)ccc32)cc1C(C)C` [Example 52, [3-(3,5-Diisopropyl-4-methoxybenzylidene)-2-oxo-2,3-dihydro-1H-indol-6-yl]-carbamic acid tert-butyl ester], the half-inhibitory concentration (IC50) was more than 100 µM.

`COc1ccc(/C=C2/C(=O)Nc3ncccc32)cc1C1CCCCC1` [Example 72, 3-(3-Cyclohexyl-4-methoxybenzylidene)-1,3-dihydropyrrolo[2,3-b]pyridin-2-one]: the half-inhibitory concentration (IC50) was 11.8 µM.

As to `CC1(C)CCc2cc(/C=C3/C(=O)Nc4ccc(Cl)cc43)ccc2O1` [Example 15, 5-Chloro-3-(2,2-dimethyl-chroman-6-ylmethylene)-1,3-dihydroindol-2-one], the IC50 was more than 100 µM.

Regarding `COC(=O)c1ccc2c(c1)/C(=C\c1cc(C(C)C)c(OC)c(C(C)C)c1)C(=O)N2` [Example 6, 3-(3,5-Diisopropyl-4-methoxybenzylidene)-2-oxo-2,3-dihydro-1H-indole-5-carboxylic acid methyl ester], the IC50 is more than 100 µM.

Turning to `COc1ccc(/C=C2/C(=O)Nc3ccc(Cl)cc32)cc1-c1cccs1` [Example 59, 5-chloro-3-(4-Methoxy-3-thiophen-2-ylbenzylidene)-1,3-dihydroindol-2-one], the IC50 was more than 100 µM.

Take `COc1cc(C)c(C=C2C(=O)Nc3ccc(Cl)cc32)cc1C(C)C` [Example 9, 5-Chloro-3-(5-isopropyl-4-methoxy-2-methylbenzylidene)-1,3-dihydroindol-2-one]: the 50% inhibitory concentration (IC50) is more than 100 µM.

`COc1ccc(/C=C2/C(=O)Nc3ccccc32)cc1C1CCCCC1` [Example 12, 3-(3-Cyclohexyl-4-methoxybenzylidene)-1,3-dihydroindol-2-one]: the concentration for half-maximal inhibition (IC50) was more than 100 µM.

As for `COc1ccc(/C=C2/C(=O)Nc3cc(NC(C)=O)ccc32)cc1-c1cccs1` [Example 31, N-[3-(4-Methoxy-3-thiophen-2-ylbenzylidene)-2-oxo-2,3-dihydro-1H-indol-6-yl]-acetamide], the IC50 is more than 100 µM.

Turning to `CC(C)c1cc(/C=C2/C(=O)Nc3ccc(Cl)cc32)cc(C(C)C)c1OCCN1CCOCC1` [Example 24, 5-chloro-3-[3,5-diisopropyl-4-(2-morpholin-4-ylethoxy)-benzylidene]-1,3-dihydroindol-2-one], the IC50 is more than 100 µM.

As to `COc1ccc(/C=C2/C(=O)Nc3ncccc32)cc1-c1ccccc1` [Example 71, 3-(6-Methoxybiphenyl-3-ylmethylene)-1,3-dihydropyrrolo[2,3-b]pyridin-2-one], the IC50 stood at 29.6 µM.

`COc1ccc(/C=C2/C(=O)Nc3ccc(Cl)cc32)cc1C1CCCCC1` [Example 51, 5-Chloro-3-(3-cyclohexyl-4-methoxybenzylidene)-1,3-dihydroindol-2-one]: the half-maximal inhibitory concentration (IC50) was more than 100 µM.

Take `COc1cc(C)c(/C=C2/C(=O)Nc3ccc(F)cc32)cc1C(C)C` [Example 30, 5-Fluoro-3-(5-isopropyl-4-methoxy-2-methyl-benzylidene)-1,3-dihydroindol-2-one]: the IC50 is more than 100 µM.

For the molecule `CC(=O)Nc1ccc2c(c1)NC(=O)/C2=C/c1ccc(OCCN2CCOCC2)c(-c2cccs2)c1` [Example 40, N-{3-[4-(2-Morpholin-4-ylethoxy)-3-thiophen-2-ylbenzylidene]-2-oxo-2,3-dihydro-1H-indol-6-yl}-acetamide], the half-maximal inhibitory concentration (IC50) is more than 100 µM.

Turning to `COc1cc(C)c(/C=C2/C(=O)Nc3ccc(Br)cc32)cc1C(C)C` [Example 36, 5-Bromo-3-(5-isopropyl-4-methoxy-2-methyl-benzylidene)-1,3-dihydroindol-2-one], the half-inhibitory concentration (IC50) is more than 100 µM.

With `Cc1cc(CCC(=O)O)c(/C=C2\C(=O)Nc3cc(-c4ccc(F)cc4)ccc32)[nH]1` [Example 107, 3-{2-[6-(4-Fluorophenyl)-2-oxo-1,2-dihydroindol-3-ylidenemethyl]-5-methyl-1H-pyrrol-3-yl}propionic acid], the half-maximal inhibitory concentration (IC50) is more than 100 µM.
